# Data as given in US12059420B2 (BRISTOL-MYERS SQUIBB COMPANY, priority 2018, dated 2024).
# Biological target: T1, human IDO1 (Homo sapiens, UniProt P14902)
# T1 construct: expressed in transfected cells
# Experiment: IDO inhibition assay in HEK293 cells stably expressing human IDO1 (kynurenine production, Ehrlich reagent, absorbance 490 nm)
# Format: cell-based
# Details: 20 hours incubation with compound, 500 nM reference standard = 100% inhibition, read-out: IDO1 HEK Human IC50
# How it was run: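 HEK293 clones stably expressing human IDO1 (10,000 cells/well, phenol red-free RPMI, 10% FBS) were treated with compound for 20 hours at 37° C. After 0.2% TCA and 30 min at 50° C., kynurenine was read with Ehrlich reagent at 490 nm. IC50 was normalised to DMSO (0%) and 500 nM reference standard (100%).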
# T1 sequence (P14902 whole entry): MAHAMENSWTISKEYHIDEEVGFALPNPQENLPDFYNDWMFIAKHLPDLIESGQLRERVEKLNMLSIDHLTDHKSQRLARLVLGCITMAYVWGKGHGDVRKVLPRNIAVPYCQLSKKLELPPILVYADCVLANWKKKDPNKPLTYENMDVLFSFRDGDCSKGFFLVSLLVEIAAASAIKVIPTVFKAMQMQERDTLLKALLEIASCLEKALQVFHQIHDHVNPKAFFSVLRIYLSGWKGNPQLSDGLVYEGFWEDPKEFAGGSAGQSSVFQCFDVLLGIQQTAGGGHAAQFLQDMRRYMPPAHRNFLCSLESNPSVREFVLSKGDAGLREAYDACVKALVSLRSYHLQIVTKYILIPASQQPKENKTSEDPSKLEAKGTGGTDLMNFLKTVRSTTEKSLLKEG
row,Structure (SMILES),IC50 [nM]
1,"CC(C)CN(Cc1ccccc1)c1cc(Nc2ccc(C#N)cn2)cc(-c2ccccc2-c2nnn[nH]2)n1 [Example 150, 6-((2-(2-(1H-tetrazol-5-yl)phenyl)-6-(benzyl(isobutyl)amino)pyridin-4-yl)amino)nicotinonitrile]",23.9
2,"CC(C)CN(Cc1ccccc1)c1cc(Nc2nc(C(F)(F)F)ccc2F)cc(-c2ccccc2-c2nnn[nH]2)n1 [Example 151, 6-(2-(1H-tetrazol-5-yl)phenyl)-N2-benzyl-N4-(3-fluoro-6-(trifluoromethyl)pyridin-2-yl)-N2-isobutylpyridine-2,4-diamine]",279
3,"Cc1cc(F)cnc1Nc1cc(-c2ccccc2-c2nnn[nH]2)nc(N(Cc2ccccc2)CC(C)C)c1 [Example 152, 6-(2-(1H-tetrazol-5-yl)phenyl)-N2-benzyl-N4-(5-fluoro-3-methylpyridin-2-yl)-N2-isobutylpyridine-2,4-diamine]",129
4,"CC(C)CN(Cc1ccccc1)c1cc(Nc2ccc3ccccc3n2)cc(-c2ccccc2-c2nnn[nH]2)n1 [Example 154, 6-(2-(1H-tetrazol-5-yl)phenyl)-N2-benzyl-N2-isobutyl-N4-(quinolin-2-yl)pyridine-2,4-diamine]",54
5,"CC(C)CN(Cc1ccccc1)c1cc(Nc2ccnc3ccnn23)cc(-c2ccccc2-c2nnn[nH]2)n1 [Example 155, 6-(2-(1H-tetrazol-5-yl)phenyl)-N2-benzyl-N2-isobutyl-N4-(pyrazolo[1,5-a]pyrimidin-7-yl)pyridine-2,4-diamine]",131
6,"CC(C)CN(Cc1ccccc1)c1cc(Nc2nc3ccc(F)cc3s2)cc(-c2ccccc2-c2nnn[nH]2)n1 [Example 156, 6-(2-(1H-tetrazol-5-yl)phenyl)-N2-benzyl-N4-(6-fluorobenzo[d]thiazol-2-yl)-N2-isobutylpyridine-2,4-diamine]",115
7,"Cc1ccc(Nc2cc(-c3ccccc3-c3nnn[nH]3)nc(N(Cc3ccccc3)CC(C)C)c2)nn1 [Example 157, 6-(2-(1H-tetrazol-5-yl)phenyl)-N2-benzyl-N2-isobutyl-N4-(6-methylpyridazin-3-yl)pyridine-2,4-diamine]",540
8,"CC(C)CN(Cc1ccccc1)c1cc(Nc2ncc(C(C)C)cn2)cc(-c2ccccc2-c2nnn[nH]2)n1 [Example 158, 6-(2-(1H-tetrazol-5-yl)phenyl)-N2-benzyl-N2-isobutyl-N4-(5-isopropylpyrimidin-2-yl)pyridine-2,4-diamine]",444

# Other lines, results leading:
row,IC50 [nM],Structure (SMILES)
1,275,"CC(C)CN(Cc1ccccc1)c1cc(Nc2ncc(C(N)=O)cc2F)cc(-c2ccccc2-c2nnn[nH]2)n1 [Example 159, 6-((2-(2-(1H-tetrazol-5-yl)phenyl)-6-(benzyl(isobutyl)amino)pyridin-4-yl)amino)-5-fluoronicotinamide]"
2,23.4,"CC(C)CN(Cc1ccccc1)c1cc(Nc2cccnc2F)cc(-c2ccccc2-c2nnn[nH]2)n1 [Example 160, 6-(2-(1H-tetrazol-5-yl)phenyl)-N2-benzyl-N4-(2-fluoropyridin-3-yl)-N2-isobutylpyridine-2,4-diamine]"
3,2.1,"Cc1nc2ccc(Nc3cc(-c4ccccc4-c4nnn[nH]4)nc(N(Cc4ccccc4)CC(C)C)c3)cc2s1 [Example 161, 6-(2-(1H-tetrazol-5-yl)phenyl)-N2-benzyl-N2-isobutyl-N4-(2-methylbenzo[d]thiazol-6-yl)pyridine-2,4-diamine]"
4,26.2,"CCc1cnc(Nc2cc(-c3ccccc3-c3nnn[nH]3)nc(N(Cc3ccccc3)CC(C)C)c2)nc1 [Example 162, 6-(2-(1H-tetrazol-5-yl)phenyl)-N2-benzyl-N4-(5-ethylpyrimidin-2-yl)-N2-isobutylpyridine-2,4-diamine]"
5,736,"CC(C)CN(Cc1ccccc1)c1cc(Nc2ncccc2C#N)cc(-c2ccccc2-c2nnn[nH]2)n1 [Example 163, 2-((2-(2-(1H-tetrazol-5-yl)phenyl)-6-(benzyl(isobutyl)amino)pyridin-4-yl)amino)nicotinonitrile]"
